# According to PubChem BioAssay AID2060604 (Molecular Pharmacology Branch, DTP, NCI, 2025):
# pIC50: −log10 of the molar value. “And” between values parts separate entries of the source, which are not always exact repeats. Equal entries are not always repeated.
# System: 379773-124-R-J2-PDC complex spheroids, viability % test/control
# Assay: Anticancer human tumor 379773-124-R-J2-PDC patient-derived endometrial carcinoma cell line growth inhibition [CLK]
# Settings: for viability, T/C: stronger effect = lower value
# Outline: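 Multi-cell-type spheroids combined patient-derived tumor cells with HUVEC endothelial cells and human mesenchymal stem cells. Paired agents were dosed in half-log steps down from about clinical Cmax, or from 10 microM where Cmax was unknown.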
# [1] = curve of first compound, second compound 0.0316 µM
# [2] = curve of first compound, second compound 0.1 µM
# [3] = curve of first compound, second compound 0.316 µM
# [4] = curve of first compound, second compound 1 µM
# [5] = curve of first compound, second compound 3.16 µM
# [6] = curve of first compound, second compound 10 µM
# [7] = second compound 0.0316 µM, first compound 0.0316 µM
# [8] = second compound 0.0316 µM, first compound 0.1 µM
# [9] = second compound 0.0316 µM, first compound 0.316 µM
# [10] = second compound 0.0316 µM, first compound 1 µM
# [11] = second compound 0.0316 µM, first compound 3.16 µM
# [12] = second compound 0.0316 µM, first compound 10 µM
# [13] = second compound 0.1 µM, first compound 0.0316 µM
# [14] = second compound 0.1 µM, first compound 0.1 µM
# [15] = second compound 0.1 µM, first compound 0.316 µM
# [16] = second compound 0.1 µM, first compound 1 µM
# [17] = second compound 0.1 µM, first compound 3.16 µM
# [18] = second compound 0.1 µM, first compound 10 µM
# [19] = second compound 0.316 µM, first compound 0.0316 µM
# [20] = second compound 0.316 µM, first compound 0.1 µM
# [21] = second compound 0.316 µM, first compound 0.316 µM
# [22] = second compound 0.316 µM, first compound 1 µM
# [23] = second compound 0.316 µM, first compound 3.16 µM
# [24] = second compound 0.316 µM, first compound 10 µM
# [25] = second compound 1 µM, first compound 0.0316 µM
# [26] = second compound 1 µM, first compound 0.1 µM
# [27] = second compound 1 µM, first compound 0.316 µM
# [28] = second compound 1 µM, first compound 1 µM
# [29] = second compound 1 µM, first compound 3.16 µM
# [30] = second compound 1 µM, first compound 10 µM
# [31] = second compound 3.16 µM, first compound 0.0316 µM
# [32] = second compound 3.16 µM, first compound 0.1 µM
# [33] = second compound 3.16 µM, first compound 0.316 µM
# [34] = second compound 3.16 µM, first compound 1 µM
# [35] = second compound 3.16 µM, first compound 3.16 µM
# [36] = second compound 3.16 µM, first compound 10 µM
# [37] = second compound 10 µM, first compound 0.0316 µM
# [38] = second compound 10 µM, first compound 0.1 µM
# [39] = second compound 10 µM, first compound 0.316 µM
# [40] = second compound 10 µM, first compound 1 µM
# [41] = second compound 10 µM, first compound 3.16 µM
# [42] = second compound 10 µM, first compound 10 µM
# 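Also: compound exposure lasted seven days before the viability readout.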
# 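For viability, T/C in this document: 100% = DMSO vehicle control wells.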
smiles,measurement,setting,value
C=CC(=O)Nc1cc(Nc2nccc(-c3cn(C)c4ccccc34)n2)c(OC)cc1N(C)CCN(C)C,"viability, T/C",compound 0.000949 µM,101% and 85.7%
same,"viability, T/C",compound 0.003 µM,87.9% and 87.5%
same,"viability, T/C",compound 0.00949 µM,91.7% and 74.8%
same,"viability, T/C",compound 0.03 µM,94.4% and 105%
same,"viability, T/C",compound 0.0949 µM,96.5% and 100%
same,"viability, T/C",compound 0.3 µM,98.5% and 90.8%
same,pIC50,curve of compound,< 6.52
CC(Nc1ccc2c(c1)OCCn1cc(N3C(=O)OCC3C(F)F)nc1-2)C(N)=O (configuration not stated) + CNC(=O)c1ccc(Nc2nc(OC3CCCC3)c3c(-c4ccc5nc(C)oc5c4)c[nH]c3n2)c(OC)c1,pIC50,[1],< 5.00
same,pIC50,[2],> 7.50
same,pIC50,[3],> 7.50
same,pIC50,[4],> 7.50
same,pIC50,[5],> 7.50
same,pIC50,[6],> 7.50
same,"viability, T/C",[7],74.7%
same,"viability, T/C",[8],72.8%
same,"viability, T/C",[9],78.1%
same,"viability, T/C",[10],73.9%
same,"viability, T/C",[11],76.3%
same,"viability, T/C",[12],62.8%
same,"viability, T/C",[13],38.7%
same,"viability, T/C",[14],33.6%
same,"viability, T/C",[15],21.3%
same,"viability, T/C",[16],23.2%
same,"viability, T/C",[17],24.6%
same,"viability, T/C",[18],15.3%
same,"viability, T/C",[19],40.3%
same,"viability, T/C",[20],30.3%
same,"viability, T/C",[21],29.1%
same,"viability, T/C",[22],29.2%
same,"viability, T/C",[23],19.1%
same,"viability, T/C",[24],16.7%
same,"viability, T/C",[25],35.5%
same,"viability, T/C",[26],28.9%
same,"viability, T/C",[27],25.1%
same,"viability, T/C",[28],22.4%
same,"viability, T/C",[29],19.9%
same,"viability, T/C",[30],9.04%
same,"viability, T/C",[31],32.5%
same,"viability, T/C",[32],30%
same,"viability, T/C",[33],23%
same,"viability, T/C",[34],22.7%
same,"viability, T/C",[35],18.3%
same,"viability, T/C",[36],11.7%
same,"viability, T/C",[37],32.5%
same,"viability, T/C",[38],28.6%
same,"viability, T/C",[39],23.5%
same,"viability, T/C",[40],18.6%
same,"viability, T/C",[41],22.3%
same,"viability, T/C",[42],14%
CC1COCCN1c1cc(C2(S(C)(=N)=O)CC2)nc(-c2ccnc3[nH]ccc23)n1 (configuration not stated),"viability, T/C",compound 0.0316 µM,90.7% and 97.2%
same,"viability, T/C",compound 0.1 µM,80.4% and 89.4%
same,"viability, T/C",compound 0.316 µM,70.8% and 87.9%
same,"viability, T/C",compound 1 µM,88.6% and 74.2%
same,"viability, T/C",compound 3.16 µM,44.8% and 47.4%
same,"viability, T/C",compound 10 µM,11.5% and 10.6%
same,pIC50,curve of compound,5.57 and 5.54
CCc1c2c(nc3ccc(O)cc13)-c1cc3c(c(=O)n1C2)COC(=O)[C@]3(O)CC,"viability, T/C",compound 0.00316 µM,24.2% and 20.4%
same,"viability, T/C",compound 0.01 µM,8.01% and 6.62%
same,"viability, T/C",compound 0.0316 µM,5.03% and 4.19%
same,"viability, T/C",compound 0.1 µM,2.77% and 1.93%
same,"viability, T/C",compound 0.316 µM,0.94% and 0.86%
same,"viability, T/C",compound 1 µM,0.57% and 0.46%
same,pIC50,curve of compound,> 8.50
C#Cc1c(F)ccc2cc(O)cc(-c3ncc4c(N5CC6CCC(C5)N6)nc(OCC56CCCN5CC(F)C6)nc4c3F)c12 (configuration not stated) + CN1CCN(c2cc(C(=O)Nc3cc4cc(-c5cnn(C)c5)ccc4cn3)ccn2)CC1,pIC50,[1],< 5.00
same,pIC50,[2],< 5.00
same,pIC50,[3],> 7.50
same,pIC50,[4],> 7.50
same,pIC50,[5],> 7.50
same,pIC50,[6],> 7.50
same,"viability, T/C",[7],88.4%
same,"viability, T/C",[8],91.4%
same,"viability, T/C",[9],93%
same,"viability, T/C",[10],87.5%
same,"viability, T/C",[11],103%
same,"viability, T/C",[12],99.3%
same,"viability, T/C",[13],89.7%
same,"viability, T/C",[14],84.5%
same,"viability, T/C",[15],75.7%
same,"viability, T/C",[16],77%
same,"viability, T/C",[17],99.1%
same,"viability, T/C",[18],72.8%
same,"viability, T/C",[19],35.7%
same,"viability, T/C",[20],27.4%
same,"viability, T/C",[21],35.1%
same,"viability, T/C",[22],33.3%
same,"viability, T/C",[23],32.5%
same,"viability, T/C",[24],28.4%
same,"viability, T/C",[25],0.19%
same,"viability, T/C",[26],0.22%
same,"viability, T/C",[27],0.24%
same,"viability, T/C",[28],1.34%
same,"viability, T/C",[29],0.78%
same,"viability, T/C",[30],0.14%
same,"viability, T/C",[31],0.14%
same,"viability, T/C",[32],2.72%
same,"viability, T/C",[33],0.76%
same,"viability, T/C",[34],2.34%
same,"viability, T/C",[35],1.68%
same,"viability, T/C",[36],1.37%
same,"viability, T/C",[37],2.32%
same,"viability, T/C",[38],0.23%
same,"viability, T/C",[39],0.32%
same,"viability, T/C",[40],3.73%
same,"viability, T/C",[41],1.56%
same,"viability, T/C",[42],0.31%
NC(=O)C(=Cn1cnc(-c2cc(C(F)(F)F)cc(C(F)(F)F)c2)n1)c1cncnc1 + CN1CCN(c2cc(C(=O)Nc3cc4cc(-c5cnn(C)c5)ccc4cn3)ccn2)CC1,pIC50,[1],7.23
same,pIC50,[2],7.32
same,pIC50,[3],> 8.02
same,pIC50,[4],> 8.02
same,pIC50,[5],> 8.02
same,pIC50,[6],> 8.02
same,"viability, T/C","second compound 0.0316 µM, first compound 0.00949 µM",84.8%
same,"viability, T/C","second compound 0.0316 µM, first compound 0.03 µM",64.5%
same,"viability, T/C","second compound 0.0316 µM, first compound 0.0949 µM",39.2%
same,"viability, T/C","second compound 0.0316 µM, first compound 0.3 µM",22.6%
same,"viability, T/C","second compound 0.0316 µM, first compound 0.949 µM",11.4%
same,"viability, T/C","second compound 0.0316 µM, first compound 3 µM",5.29%
same,"viability, T/C","second compound 0.1 µM, first compound 0.00949 µM",60.4%
same,"viability, T/C","second compound 0.1 µM, first compound 0.03 µM",57.7%
same,"viability, T/C","second compound 0.1 µM, first compound 0.0949 µM",39.9%
same,"viability, T/C","second compound 0.1 µM, first compound 0.3 µM",17.9%
same,"viability, T/C","second compound 0.1 µM, first compound 0.949 µM",8.03%
same,"viability, T/C","second compound 0.1 µM, first compound 3 µM",2.96%
same,"viability, T/C","second compound 0.316 µM, first compound 0.00949 µM",16.4%
same,"viability, T/C","second compound 0.316 µM, first compound 0.03 µM",14.8%
same,"viability, T/C","second compound 0.316 µM, first compound 0.0949 µM",7.32%
same,"viability, T/C","second compound 0.316 µM, first compound 0.3 µM",3.49%
same,"viability, T/C","second compound 0.316 µM, first compound 0.949 µM",1.06%
same,"viability, T/C","second compound 0.316 µM, first compound 3 µM",0.04%
same,"viability, T/C","second compound 1 µM, first compound 0.00949 µM",0.1%
same,"viability, T/C","second compound 1 µM, first compound 0.03 µM",0.12%
same,"viability, T/C","second compound 1 µM, first compound 0.0949 µM",0.3%
same,"viability, T/C","second compound 1 µM, first compound 0.3 µM",0.14%
same,"viability, T/C","second compound 1 µM, first compound 0.949 µM",1.96%
same,"viability, T/C","second compound 1 µM, first compound 3 µM",0.06%
same,"viability, T/C","second compound 3.16 µM, first compound 0.00949 µM",2.45%
same,"viability, T/C","second compound 3.16 µM, first compound 0.03 µM",0.72%
same,"viability, T/C","second compound 3.16 µM, first compound 0.0949 µM",0.44%
same,"viability, T/C","second compound 3.16 µM, first compound 0.3 µM",0.13%
same,"viability, T/C","second compound 3.16 µM, first compound 0.949 µM",0.11%
same,"viability, T/C","second compound 3.16 µM, first compound 3 µM",0.11%
same,"viability, T/C","second compound 10 µM, first compound 0.00949 µM",0.45%
same,"viability, T/C","second compound 10 µM, first compound 0.03 µM",0.13%
same,"viability, T/C","second compound 10 µM, first compound 0.0949 µM",1.03%
same,"viability, T/C","second compound 10 µM, first compound 0.3 µM",0.18%
same,"viability, T/C","second compound 10 µM, first compound 0.949 µM",0.19%
same,"viability, T/C","second compound 10 µM, first compound 3 µM",0.17%
